Source: patent US20120283269A1, “Method and Compositions for Suppression of Aging” (HEALTH RESEARCH INC., priority 2009, published 2012)
“Also recorded” adds a separate entry of the source.

Legend:
Assay type in all cases: cell-based, human
[1] = system: HT-p21-9 cells; experiment: Senescent morphology and beta-Gal staining of HT-p21-9 cells (IPTG-induced p21); settings: for cell divisions / arrest in the presence of nutlin-3a alone: nutlin-3a (10 μM), low cell density
Method: (§1) FIG. 1. Nutlin-3a converted senescence into quiescence. a. […] Cells were stained for beta-Gal and photographed (original magnification ×400). Bar scale—50 μm. b. […] Then cells were cultured in fresh medium until colonies become visible. Dishes were stained with crystal violet and photographed on day 4 (control) or on day 9 (IPTG- and nutlin-3a-treated).c. […] Before wash. Live HT-p21-9 cells (expressing GFP for better visualization of live cells) were photographed (original magnification ×100) under blue light. 3 d wash. Three days after drug removal. 9 d wash. Nine days after drug removal, cells were stained with crystal violet and photographed. d. Nutlin-3a dose response. […] After 3 days, the plates were washed and cells were incubated for an additional 9 days in fresh medium, stained with crystal violet and photographed. e. Colonies per dish. […] After 3 days, the plates were washed and cells were incubated for an additional 9 days in fresh medium. Colonies were counted and results are shown as percent of control (IPTG alone). f. Cells per dish. As in panel e. Cells were trypsinized and counted. Results are shown as percent of control (IPTG alone).
FIG. 5. Senescent versus quiescent morphology. […] Live cells, visualized with GFP (×100). In control, cells underwent 3 divisions, forming micro-colony.
(§2) Cell lines and reagents. HT-p21-9 and HT-p21-a cells are derivatives of HT1080 human fibrosarcoma cells, where p21 expression can be turned on or off using isopropyl-thio-galactosidase (IPTG) (7, 16, 28, 29, 36). […] HT-p16 cells are derivatives of HT1080 cells in which p16 expression can be turned on or off using IPTG (16, 36). WI-38-Tert, WI-38 are fibroblasts immortalized by telomerase. HT-p21-GSE56 cells: p53 inhibiting peptide GSE56 (18) was introduced into HT1080 p21-9 cells via a retroviral vector LXSE (37). Cells were grown in high glucose DMEM with 10% FC2 serum. WI-38-tert cells were grown in low glucose DMEM with 10% FCS. Rapamycin was obtained from LC Laboratories (Woburn, Mass.). IPTG (final concentration of 50 μg/ml) and FC2 were obtained from Sigma-Aldrich (St. Louis, Mo.).
(§3) Beta-galactosidase staining Beta-gal staining was performed using Senescence-galactosidase staining kit (Cell Signaling Technology).

[2] = system: HT-p21-9 cells; experiment: Colony formation / proliferative potential after drug removal, HT-p21-9 cells
Method: as §1
FIG. 3. […] Immunoblot. […] Immunoblot was performed as described in the methods for Example 1 below. b. Immunoblot. […] Immunoblot was performed as described in Methods. c. […] After 3 days, cells were washed and incubated in fresh medium w/o drugs for an additional 7 days. Cells were counted and are shown as percent of IPTG alone. d. […] Cells were treated with either IPTG alone (black bars) or IPTG plus rapamycin (white bars) or plus nutlin-3a (grey bars). On days 2, 3, 4, and 5 cells were lysed and protein content per well was measured. […] Cells were labeled with [^35S]methionine/cysteine as described in Methods for Example 1.
FIG. 6. […] Nine days after drug removal. a. Cell number per dish. Cells per dish were counted. b. Cell number per a colony. Number of cells per colony was calculated. A number of cells per colony was 200-250 (approximately equals to 8 divisions) by day 9.
as §2
Colony formation assay. Plates were fixed and stained with 1.0% methylene blue or with crystal violet (13).

[3] = system: p53; experiment: Immunoblot for p53 and p21 in HT-p21-9 and HT-p21-GSE56 cells
Method: Control cells were left untreated (no IPTG). After 1 day, cells were lysed and immunoblot was performed. b. […] As a negative control, parental cells were treated with nutlin-3b (open squares).c-d. […] Control cells were left untreated (no IPTG). c. Morphology. After 3 days, cells were stained for beta-Gal. Scale bars—50 μm.d. Colony formation. After 3 days, cells were washed and incubated in fresh medium w/o drugs for an additional 9 days. Plates were stained with crystal violet and photographed. e. Proliferative potential (PP). After 3 days, HT-p21-GSE56 cells were washed and incubated in fresh medium w/o drugs. Cells were counted and results are shown as percent of IPTG alone.
as §2
Immunoblot analysis. Proteins were separated on 4-15% gradient Tris-HCl gels (Bio-Rad). The following antibodies were used: mouse anti-actin from Santa Cruz Biotechnology, rabbit anti-phospho-S6 (Ser240/244) and (Ser235/236), mouse anti-S6, mouse anti-phospho-p70 S6 kinase (Thr389), mouse anti-p21 and anti-p53, rabbit anti-phospho-4E-BP1 (Thr37/46) from Cell Signaling; mouse anti-4E-BP1 from Invitrogen, mouse anti-p53 (Ab-6) from Calbiochem.

[4] = system: HT-p21-GSE56 cells; experiment: Proliferation, senescence and proliferative potential of HT-p21-GSE56 cells (p53 function blocked); settings: 3 days, washed, fresh medium
Method: Cell lines and reagents. […] WI-38-Tert, WI-38 are fibroblasts immortalized by telomerase. […] Cells were grown in high glucose DMEM with 10% FC2 serum. WI-38-tert cells were grown in low glucose DMEM with 10% FCS. Rapamycin was obtained from LC Laboratories (Woburn, Mass.). IPTG (final concentration of 50 μg/ml) and FC2 were obtained from Sigma-Aldrich (St. Louis, Mo.).

[5] = system: HT-p21-a cells, HT-p16 cells; experiment: Preservation of proliferative potential in IPTG-treated HT-p21-a and HT-p16 cells, nutlin-3a versus nutlin-3b; settings: IPTG-regulated p16- and p21-expressing cells
From the text: FIG. 7. […] Then medium was changed and cells were counted after 8 days. b. […] Then medium was changed and cells were counted after 5 days.
as §2

[6] = system: WI-38-tert cells; experiment: Senescence / quiescence in WI-38-tert fibroblasts
Method: FIG. 4. […] HT-p21-a cells were treated with IPTG and infected with Ad-p53. After 3 days, cells were photographed (original magnification ×200): Upper panel. Under blue light to visualize cells expressing p53 (green cells). Lower panel. Under visible light to visualize all cells. Red arrows indicate cells lacking p53 expression. All of these cells show large, flat cell morphology. Green arrows indicate cells expressing p53. b-d. […] After 1 day, cells were lysed and immunoblot was performed as described in Methods for Example 1. c. […] Cells were then stained for beta-Gal activity and microphotographed. Scale bar—50 μm.d. […] Cells were then trypsinized and counted. […] Results are shown as percent of control.
FIG. 11. Effects of Ad-p21 and Ad-p53 on senescent morphology in WI-38-tert fibroblasts. WI-38-tert cells were infected with either p21-expressing adenovirus (Ad-p21) or p53-expressing adenovirus (Ad-p53) or both. After 3 days, cells were stained for beta-Gal.
as §2, §3

With `COc1ccc(C2=N[C@@H](c3ccc(Cl)cc3)[C@@H](c3ccc(Cl)cc3)N2C(=O)N2CCNC(=O)C2)c(OC(C)C)c1` [nutlin-3a] the “cell morphology and SA-beta-Gal staining” value ([1]; 10 μM nutlin-3a alone, 3 days) was “remained small, lean and SA-beta-Gal-negative”, the “senescent morphology caused by IPTG” value ([1]; IPTG plus compound (10 μM nutlin-3a), 3 days) was “prevented the senescent morphology caused by IPTG; also recorded: suppressed senescence in IPTG-treated HT-p21-9 cells only” and the “cytostatic effect of IPTG” value ([1]; IPTG plus nutlin-3a) was “did not abrogate the cytostatic effect of IPTG”. For the same compound, the “cell divisions / arrest in the presence of nutlin-3a alone” value ([1]; 3 days) was “underwent one division and did not proliferate further”, the “cell divisions / arrest in the presence of nutlin-3a alone” value ([1]; 3 days, listed as Nutlin-3a) was “arrested after one division with normal cell morphology” and the “proliferative potential and clonogenicity of IPTG-treated cells” value ([2]; IPTG plus nutlin-3a 3 days, washed, fresh medium) was “retained the proliferative potential and clonogenicity”. The “number of cells per colony” value ([2]; IPTG+nutlin-3a 3 days, day 9 after drug removal) was 200-250, the “potency in suppression of senescence (preservation of proliferative potential)” value ([2]; IPTG-treated HT-p21-9 cells) was “equally potent” and the “reversibility of arrest (colony formation upon removal)” value ([2]; nutlin-3a alone 3 days, then washed) was “reversible arrest”. The “further suppression of senescence by nutlin-3a in the presence of rapamycin” value ([2]; rapamycin (500 nM) at doses that completely inhibit mTOR) was “could not further suppress senescence”, the “induction of p21 by IPTG in HT-p21-GSE56 cells” value ([3]; 1 day) was “did not affect this induction” and the “p53 levels in HT-p21-GSE56 cells” value ([3]; 1 day) was “did not affect p53 levels in HT-p21-GSE56 cells”. The “p53 levels in HT-p21 cells” value ([3]; 1 day) was “induced p53 in HT-p21 cells”, the “levels of p21 induced by IPTG” value ([3]; HT-p21 cells, IPTG plus compound) was “neither abrogated nor diminished the levels of p21; also recorded: did not prevent induction of p21 by IPTG” and the “colony formation and proliferative potential (PP) in IPTG-treated HT-p21-GSE56 cells” value [4] was “did not preserve colony formation and proliferative potential (PP)”. The “conversion of senescence into quiescence (preservation of proliferative potential)” value [5] was “preservation of proliferative potential”, the “senescence induced by H2O2” value ([6]; 10 μM nutlin-3a 3 days, washed, 3 more days, beta-Gal) was “suppressed senescence induced by H2O2” and the “proliferative potential in H2O2-treated cells” value ([6]; 10 μM nutlin-3a 3 days, washed, 6 more days) was “partially preserved proliferative potential”. For the same compound, the “type of arrest in WI-38-tert cells” value ([6]; compound alone) was “caused quiescence”.
